Laboratory results: the supplement of paper PMC12076712

Key:
Assay in all cases: pIC50, kinobeads binding competition
Details in all cases: cell material: Jurkat lysate
EPHB6 = molecular target: T1, EPHB6 (UniProt O15197)
T1 sequence (whole entry): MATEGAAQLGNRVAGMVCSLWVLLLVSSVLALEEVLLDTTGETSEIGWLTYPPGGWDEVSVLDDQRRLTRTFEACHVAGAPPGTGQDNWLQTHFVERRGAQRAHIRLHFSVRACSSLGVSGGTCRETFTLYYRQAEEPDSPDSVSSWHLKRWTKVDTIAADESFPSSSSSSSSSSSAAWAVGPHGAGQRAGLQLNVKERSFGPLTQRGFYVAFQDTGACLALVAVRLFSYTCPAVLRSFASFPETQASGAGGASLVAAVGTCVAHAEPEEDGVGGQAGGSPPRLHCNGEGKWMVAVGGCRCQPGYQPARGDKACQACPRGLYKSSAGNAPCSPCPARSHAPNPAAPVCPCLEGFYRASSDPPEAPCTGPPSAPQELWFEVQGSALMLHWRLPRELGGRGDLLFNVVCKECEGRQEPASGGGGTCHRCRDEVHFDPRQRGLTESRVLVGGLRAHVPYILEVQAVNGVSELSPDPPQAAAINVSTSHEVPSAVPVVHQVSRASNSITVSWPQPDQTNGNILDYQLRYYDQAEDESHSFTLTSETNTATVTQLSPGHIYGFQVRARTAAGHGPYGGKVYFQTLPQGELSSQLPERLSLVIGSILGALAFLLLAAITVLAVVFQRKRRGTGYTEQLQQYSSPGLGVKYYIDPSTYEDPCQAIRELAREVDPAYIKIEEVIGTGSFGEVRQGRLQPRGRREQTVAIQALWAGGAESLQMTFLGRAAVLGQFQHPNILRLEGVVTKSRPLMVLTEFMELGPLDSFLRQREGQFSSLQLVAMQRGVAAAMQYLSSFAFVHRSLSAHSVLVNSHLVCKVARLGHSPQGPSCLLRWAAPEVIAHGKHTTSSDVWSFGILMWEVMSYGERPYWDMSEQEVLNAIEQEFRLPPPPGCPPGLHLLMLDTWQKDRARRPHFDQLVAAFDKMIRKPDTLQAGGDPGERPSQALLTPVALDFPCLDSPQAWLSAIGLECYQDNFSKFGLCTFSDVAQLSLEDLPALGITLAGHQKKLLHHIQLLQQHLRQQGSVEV

UniProt P23443 = molecular target: UniProt P23443
PIK3R4 = PIK3R4 (UniProt Q99570)
UniProt Q9H0K1 = molecular target: UniProt Q9H0K1
MAP4K3 = molecular target: T2, MAP4K3 (UniProt Q8IVH8)
T2 sequence (whole entry): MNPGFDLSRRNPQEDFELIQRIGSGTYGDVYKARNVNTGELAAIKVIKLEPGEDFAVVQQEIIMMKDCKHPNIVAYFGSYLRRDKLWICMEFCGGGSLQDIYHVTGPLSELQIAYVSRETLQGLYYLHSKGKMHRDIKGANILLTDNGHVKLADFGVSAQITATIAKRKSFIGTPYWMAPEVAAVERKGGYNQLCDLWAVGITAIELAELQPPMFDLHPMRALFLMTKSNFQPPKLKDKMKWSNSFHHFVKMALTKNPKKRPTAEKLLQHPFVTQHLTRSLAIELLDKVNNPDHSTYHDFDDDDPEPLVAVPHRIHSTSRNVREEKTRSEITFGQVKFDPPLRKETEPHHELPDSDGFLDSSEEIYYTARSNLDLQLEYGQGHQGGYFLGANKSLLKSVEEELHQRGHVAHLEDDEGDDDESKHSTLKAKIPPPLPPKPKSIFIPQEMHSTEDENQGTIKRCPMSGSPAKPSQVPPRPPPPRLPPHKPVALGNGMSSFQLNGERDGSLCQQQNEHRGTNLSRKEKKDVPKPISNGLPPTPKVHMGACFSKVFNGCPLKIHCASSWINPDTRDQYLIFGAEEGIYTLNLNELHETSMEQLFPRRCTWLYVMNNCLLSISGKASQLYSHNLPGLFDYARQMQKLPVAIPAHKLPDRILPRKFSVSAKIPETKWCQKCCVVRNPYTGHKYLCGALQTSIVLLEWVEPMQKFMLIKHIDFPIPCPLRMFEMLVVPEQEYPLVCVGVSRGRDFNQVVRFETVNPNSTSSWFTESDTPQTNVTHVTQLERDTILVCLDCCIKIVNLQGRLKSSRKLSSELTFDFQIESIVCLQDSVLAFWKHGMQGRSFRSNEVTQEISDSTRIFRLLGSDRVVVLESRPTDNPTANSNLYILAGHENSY

TGFBR1 = molecular target: T3, TGFBR1 (UniProt P36897)
T3 sequence (whole entry): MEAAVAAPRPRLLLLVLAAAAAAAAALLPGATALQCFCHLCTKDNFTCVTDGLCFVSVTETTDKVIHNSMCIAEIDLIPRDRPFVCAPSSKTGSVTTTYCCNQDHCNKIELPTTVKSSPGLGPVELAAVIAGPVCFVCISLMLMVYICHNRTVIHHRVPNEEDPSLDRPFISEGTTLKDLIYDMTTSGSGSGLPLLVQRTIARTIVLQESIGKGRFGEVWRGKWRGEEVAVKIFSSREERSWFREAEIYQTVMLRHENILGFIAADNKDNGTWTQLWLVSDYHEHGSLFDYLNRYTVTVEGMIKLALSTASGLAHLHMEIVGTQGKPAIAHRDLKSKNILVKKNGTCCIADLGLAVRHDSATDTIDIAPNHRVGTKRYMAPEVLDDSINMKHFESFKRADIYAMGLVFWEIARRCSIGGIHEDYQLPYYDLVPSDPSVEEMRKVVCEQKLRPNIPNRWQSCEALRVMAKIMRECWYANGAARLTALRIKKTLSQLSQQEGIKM

Sequence of UniProt Q9H0K1 (Q9H0K1 whole entry, looked up): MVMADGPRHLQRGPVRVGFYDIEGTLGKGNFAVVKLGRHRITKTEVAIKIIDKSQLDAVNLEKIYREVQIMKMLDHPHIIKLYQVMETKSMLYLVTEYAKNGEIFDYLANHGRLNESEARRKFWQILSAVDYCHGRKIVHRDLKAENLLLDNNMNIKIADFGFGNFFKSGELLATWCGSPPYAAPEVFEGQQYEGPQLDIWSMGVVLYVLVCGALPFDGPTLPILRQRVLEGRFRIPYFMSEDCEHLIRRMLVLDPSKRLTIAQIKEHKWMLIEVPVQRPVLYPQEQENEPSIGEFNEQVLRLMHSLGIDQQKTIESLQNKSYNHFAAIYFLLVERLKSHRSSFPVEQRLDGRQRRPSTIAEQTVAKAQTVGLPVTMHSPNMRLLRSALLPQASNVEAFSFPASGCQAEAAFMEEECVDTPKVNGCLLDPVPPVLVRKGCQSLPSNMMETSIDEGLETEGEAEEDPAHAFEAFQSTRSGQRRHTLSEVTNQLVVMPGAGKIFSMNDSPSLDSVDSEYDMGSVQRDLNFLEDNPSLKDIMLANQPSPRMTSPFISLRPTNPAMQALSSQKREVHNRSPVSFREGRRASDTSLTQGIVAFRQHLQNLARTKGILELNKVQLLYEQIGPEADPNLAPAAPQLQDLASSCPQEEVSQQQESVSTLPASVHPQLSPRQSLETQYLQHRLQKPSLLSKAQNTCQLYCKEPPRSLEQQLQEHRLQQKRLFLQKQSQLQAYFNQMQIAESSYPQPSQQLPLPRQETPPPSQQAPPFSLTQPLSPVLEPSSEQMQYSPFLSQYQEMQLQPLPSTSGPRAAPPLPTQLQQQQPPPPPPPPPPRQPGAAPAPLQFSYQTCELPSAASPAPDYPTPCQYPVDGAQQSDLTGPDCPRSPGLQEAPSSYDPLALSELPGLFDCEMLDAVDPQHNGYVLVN
Sequence of PIK3R4 (Q99570 whole entry): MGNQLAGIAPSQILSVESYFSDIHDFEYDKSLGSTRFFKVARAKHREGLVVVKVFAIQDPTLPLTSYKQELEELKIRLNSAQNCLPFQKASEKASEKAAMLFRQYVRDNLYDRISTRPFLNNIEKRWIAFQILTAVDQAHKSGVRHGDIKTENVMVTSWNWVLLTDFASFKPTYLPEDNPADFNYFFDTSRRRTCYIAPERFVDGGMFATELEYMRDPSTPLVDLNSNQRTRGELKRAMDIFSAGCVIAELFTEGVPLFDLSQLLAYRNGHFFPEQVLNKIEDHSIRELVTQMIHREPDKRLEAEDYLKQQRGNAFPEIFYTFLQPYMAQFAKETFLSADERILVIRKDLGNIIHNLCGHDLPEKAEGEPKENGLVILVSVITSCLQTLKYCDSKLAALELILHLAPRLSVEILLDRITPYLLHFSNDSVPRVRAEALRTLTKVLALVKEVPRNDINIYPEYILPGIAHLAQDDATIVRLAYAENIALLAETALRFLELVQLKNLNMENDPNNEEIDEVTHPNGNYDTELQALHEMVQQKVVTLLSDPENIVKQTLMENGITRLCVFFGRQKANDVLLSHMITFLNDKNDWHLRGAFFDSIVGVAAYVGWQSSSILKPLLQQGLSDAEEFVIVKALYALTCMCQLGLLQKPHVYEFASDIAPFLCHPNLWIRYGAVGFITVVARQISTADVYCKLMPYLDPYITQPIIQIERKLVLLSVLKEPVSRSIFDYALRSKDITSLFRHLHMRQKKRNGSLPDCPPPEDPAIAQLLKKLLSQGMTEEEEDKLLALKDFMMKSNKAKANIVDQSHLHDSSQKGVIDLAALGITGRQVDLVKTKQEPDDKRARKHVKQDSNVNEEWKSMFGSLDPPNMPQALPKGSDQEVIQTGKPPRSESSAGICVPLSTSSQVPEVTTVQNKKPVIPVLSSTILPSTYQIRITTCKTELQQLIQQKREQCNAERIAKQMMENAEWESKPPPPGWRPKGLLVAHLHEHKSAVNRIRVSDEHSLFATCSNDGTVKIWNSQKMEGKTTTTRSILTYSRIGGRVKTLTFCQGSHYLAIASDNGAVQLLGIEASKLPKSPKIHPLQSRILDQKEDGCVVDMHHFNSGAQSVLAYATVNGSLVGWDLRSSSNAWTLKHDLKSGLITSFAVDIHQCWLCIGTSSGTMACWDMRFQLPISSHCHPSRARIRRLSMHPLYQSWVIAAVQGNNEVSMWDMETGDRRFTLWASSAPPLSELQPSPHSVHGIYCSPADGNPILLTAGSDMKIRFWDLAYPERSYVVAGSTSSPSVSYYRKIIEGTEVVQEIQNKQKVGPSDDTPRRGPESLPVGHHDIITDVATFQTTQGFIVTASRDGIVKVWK
Sequence of UniProt P23443 (P23443 whole entry, looked up): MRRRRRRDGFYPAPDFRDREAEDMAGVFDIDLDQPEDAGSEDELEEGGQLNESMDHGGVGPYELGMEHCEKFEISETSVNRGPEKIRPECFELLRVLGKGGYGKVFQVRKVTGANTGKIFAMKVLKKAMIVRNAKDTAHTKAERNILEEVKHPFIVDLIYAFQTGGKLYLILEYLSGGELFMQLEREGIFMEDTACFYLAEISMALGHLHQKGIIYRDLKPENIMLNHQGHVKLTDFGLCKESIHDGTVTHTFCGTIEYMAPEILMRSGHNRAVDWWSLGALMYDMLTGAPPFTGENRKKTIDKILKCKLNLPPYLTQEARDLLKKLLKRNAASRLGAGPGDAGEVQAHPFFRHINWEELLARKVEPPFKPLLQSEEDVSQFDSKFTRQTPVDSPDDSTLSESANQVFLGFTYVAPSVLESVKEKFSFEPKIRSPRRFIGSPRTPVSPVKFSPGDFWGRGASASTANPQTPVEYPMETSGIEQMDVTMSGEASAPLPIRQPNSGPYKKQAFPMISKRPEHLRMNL

- pIC50 (EPHB6): < 4.52
- pIC50 (UniProt P23443): < 4.52
- pIC50 (PIK3R4): < 4.52
- pIC50 (UniProt Q9H0K1): < 4.52
- pIC50 (MAP4K3): < 4.52
- pIC50 (TGFBR1): < 4.52
Compound: CCc1cnn2c(NCc3ccc[n+]([O-])c3)cc(N3CCCC[C@H]3CCO)nc12 [dinaciclib]
